Test results published in US10596165B2, “Combination therapies” (resTORbio, Inc., priority 2018, dated 2020).

Legend:
[1] = tested on: R6/2 brain slices; assay: polyQ density (immunohistochemical detection of PolyQ inclusions) in R6/2 corticostriatal slice cultures; format: cell-based, mouse; details: DIV14 to DIV21, read at DIV21, vs DMSO treated R6/2 slices
Method: (§1) Slice cultures were established according to described procedures. (L. Stoppini et al., J. Neurosci. Methods 37(2): 173-82 (1991) and N. Gogolla et al., Nat. Protoc. 1(3): 1165-71 (2006)). A particular cutting angle was utilized to produce brain slices with a preserved cortico-striatal pathway. Finally, slices were selected, placed on Millicel (Millipore, PICM03050) and cultured in 6-well dishes at 35° C. and 5% CO2 in the presence of 1 ml of culture medium.
(§2) Slices were treated with different mTOR inhibitors from DIV14 to DIV21. The culture medium was exchanged every second day, and drugs were added in the fresh culture medium. We used this protocol to evaluate the action of the following mTOR inhibitors: RTB101 (50 and 300 nM in DMSO), everolimus (250 nM in DMSO), CCG168 (300 nM in DMSO), and everolimus+RTB101 (250 and 10, 250and 30 and 250 and 50 nM in DMSO). […]
(§3) High resolution images were acquired on an upright Zeiss LSM700 confocal microscope, using a Plan-Neofluar 40x/1.3 oil immersion objective. For the quantification of the PolyQ density and DARPP-32/NeuF signal intensity, at least three confocal 3D stacks/slice were acquired in striatum for each experiment (five slices per condition), and analyzed using Imaris 4.2 (BitplaneAG) and Image J softwares. All data are expressed as mean±SEM. […]

[2] = tested on: R6/2 brain slices; assay: Striatal degeneration: DARPP-32 intensity and neurofilament levels in R6/2 slice cultures; format: cell-based, mouse; details: single low-concentrations (everolimus 250 nM; RTB101 50 nM), DIV21
Method: as §1, §2, §3

| SMILES | polyQ density ([1]; 250 nM everolimus single treatment) | DARPP-32 level [2] | neurofilament level [2] | polyQ density ([1]; 50 nM RTB101 single treatment) |
| --- | --- | --- | --- | --- |
| CO[C@H]1C[C@@H]2CC[C@@H](C)[C@@](O)(O2)C(=O)C(=O)N2CCCC[C@H]2C(=O)O[C@H]([C@H](C)C[C@@H]2CC[C@@H](OCCO)[C@H](OC)C2)CC(=O)[C@H](C)/C=C(\C)[C@@H](O)[C@@H](OC)C(=O)[C@H](C)C[C@H](C)/C=C/C=C/C=C/1C [everolimus, (1R,9S,12S,15R,16E,18R,19R,21R,23S,24E,26E,28E,30S,32S,35R)-1,18-dihydroxy-12-{(1R)-2-[(1S,3R,4R)-4-(2-hydroxyethoxy)-3-methoxycyclohexyl]-1-methylethyl}-19,30-dimethoxy-15,17,21,23,29,35-hexamethyl-11,36-dioxa-4-aza-tricyclo[30.3.1.04,9]hexatriaconta-16,24,26,28-tetraene-2,3,10,14,20-pentaone] | no effect | ineffective | ineffective | – |
| Cn1c(=O)n(-c2ccc(C(C)(C)C#N)cc2)c2c3cc(-c4cnc5ccccc5c4)ccc3ncc21 [RTB101, 2-methyl-2-[4-(3-methyl-2-oxo-8-quinolin-3-yl-2,3-dihydro-imidazo[4,5-c]quinolin-1-yl)-phenyl]-propionitrile] | – | – | – | no effect |
